These results are taken from patent publication US10227344B2, “CK2 inhibitors, compositions and methods thereof” (Polaris Pharmaceuticals, Inc., priority 2016, dated 2019).

Molecules are shown by their SMILES.

Holding throughout (format): cell-based
One assay has as its system PC3. The assay is described as follows: Cancer cell panel, cell viability (resazurin): Prostate, PC3. Conditions: Homo sapiens, PC-3, 72 hours, single agent, read-out: Example 3 IC50. For orientation: The colour change of resazurin is a common sign of viable cells or microbes.
Another assay has as its system A2780. The assay is described as follows: Cancer cell panel, cell viability (resazurin): Ovarian, A2780. As to conditions: Homo sapiens, 72 hours, single agent, read-out: Example 3 IC50.
Another assay deals with Caov-3. As to the kind of experiment: Cancer cell panel, cell viability (resazurin): Ovarian, Caov-3. Conditions: Homo sapiens; Caov-3 (Ovarian), 72 hours, single agent; read-out: Example 3 IC50.
A further assay deals with Panc-1. The assay is described as follows: Cancer cell panel, cell viability (resazurin): Pancreatic, Panc-1. Conditions: Homo sapiens; Panc-1 (Pancreatic), 72 hours, single agent; read-out: Example 3 IC50.
A further assay concerns HT29. The assay is described as follows: Cancer cell panel, cell viability (resazurin): Colon, HT29. Conditions: Homo sapiens, HT-29, 72 hours, single agent, read-out: Example 3 IC50.
The next assay concerns LoVo. The assay is described as follows: Cancer cell panel, cell viability (resazurin): Colon, LoVo. As to conditions: Homo sapiens, 72 hours, single agent, read-out: Example 3 IC50.
For another assay, the system named is DLD-1. As to the kind of experiment: Cancer cell panel, cell viability (resazurin): Colon, DLD-1. Conditions: Homo sapiens; DLD-1 (Colon), 72 hours, single agent; read-out: Example 3 IC50.
The subject of a further assay is H460. The assay is described as follows: Cancer cell panel, cell viability (resazurin): NSCLC, H460. As to conditions: Homo sapiens, NCI-H460, 72 hours, single agent, read-out: Example 3 IC50.
The subject of another assay is MDA-MB-231. The assay is described as follows: Cancer cell panel, cell viability (resazurin): Breast, MDA-MB-231. As to conditions: Homo sapiens; MDA-MB-231 (Breast), 72 hours, single agent; read-out: Example 3 IC50.
For another assay, the system named is MDA-MB-157. The assay is described as follows: Cancer cell panel, cell viability (resazurin): Breast, MDA-MB-157. As to conditions: Homo sapiens; MDA-MB-157 (Breast), 72 hours, single agent; read-out: Example 3 IC50.
Another assay deals with ZR-75-1. As to the kind of experiment: Cancer cell panel, cell viability (resazurin): Breast, ZR-75-1. As to conditions: Homo sapiens; ZR-75-1 (Breast), 72 hours, single agent; read-out: Example 3 IC50.
The next assay concerns 786-O. As to the kind of experiment: Cancer cell panel, cell viability (resazurin): Renal, 786-O. Conditions: Homo sapiens, 786-0; 786-O (Renal), 72 hours, single agent; read-out: Example 3 IC50.
Another assay has as its system ACHN. As to the kind of experiment: Cancer cell panel, cell viability (resazurin): Renal, ACHN. As to conditions: Homo sapiens, 72 hours, single agent, read-out: Example 3 IC50.
In another assay the test system is WM-115. As to the kind of experiment: Cancer cell panel, cell viability (resazurin): Melanoma, WM-115. As to conditions: Homo sapiens; WM-115 (Melanoma), 72 hours, single agent; read-out: Example 3 IC50.
The next assay deals with RPMI8226. The assay is described as follows: Cancer cell panel, cell viability (resazurin): multiple myeloma, RPMI8226. Conditions: Homo sapiens, RPMI-8226, 72 hours, single agent, read-out: Example 3 IC50.
A further assay has as its system U87MG. As to the kind of experiment: Cancer cell panel, cell viability (resazurin): Glioblastoma, U87MG. Conditions: Homo sapiens, U-87 MG, 72 hours, single agent, read-out: Example 3 IC50.
Another assay concerns Ramos. The assay is described as follows: Cancer cell panel, cell viability (resazurin): Burkitt's Lymphoma, Ramos. As to conditions: Homo sapiens, 72 hours, single agent, read-out: Example 3 IC50.
A further assay relates to Daudi. As to the kind of experiment: Cancer cell panel, cell viability (resazurin): Burkitt's Lymphoma, Daudi. Conditions: Homo sapiens, 72 hours, single agent, read-out: Example 3 IC50.
Another assay deals with HL60. The assay is described as follows: Cancer cell panel, cell viability (resazurin): Leukemia, HL60. As to conditions: Homo sapiens, HL-60, 72 hours, single agent, read-out: Example 3 IC50.
The test system of a further assay is EOL-1. As to the kind of experiment: Cancer cell panel, cell viability (resazurin): Leukemia, EOL-1. As to conditions: Homo sapiens, EOL1; EOL-1 (Leukemia), 72 hours, single agent; read-out: Example 3 IC50.

Method for A2780: (§1) Cells were plated in 96-well plates and treated for 72 hours with a serially diluted CK2 inhibitor or anti-cancer drug or their combination. The suspension cell lines were treated right after plating, while the adherent cells were allowed to attach overnight prior to the start of the treatment.
(§2) Cell viability was determined by adding resazurin to cell cultures and measuring fluorescence with a plate reader. Relative cell viability was calculated by dividing the cell viability signal from a test sample by that of a non-treated control. […] Bliss Independence and Highest Single Agent models were used to determine if there is synergy, additivity or antagonism between the CK2 inhibitor and an anti-cancer drug.
Method for ACHN: as §1, §2
Method for EOL-1: as §1, §2
Method for H460: as §1, §2
Method for PC3: as §1, §2
Method for Ramos: as §1, §2
Method for U87MG: as §1, §2
Method for ZR-75-1: as §1, §2

With `C[S@+]([O-])Cc1cc(Nc2cc(NC3CC3)n3ncc(C#N)c3n2)ccc1Cl` [Example 3, (S)(+)-5-((4-Chloro-3-((methylsulfinyl)methyl)phenyl)amino)-7-(cyclopropylamino)pyrazolo[1,5-a]pyrimidine-3-carbonitrile], the IC50 (as a rule, the point on the concentration scale where inhibition reaches its midpoint) in the assay with PC3 came out at 0.112 µM; in the assay with A2780, 0.527 µM; in the assay on Caov-3 it was 0.05 µM; in the assay with Panc-1, 0.539 µM; with HT29, 0.197 µM; in the assay with LoVo, 0.17 µM. Besides, the concentration for half-maximal inhibition (IC50) was determined as 0.572 µM in the assay with DLD-1; 0.35 µM in the assay with H460; 0.567 µM with MDA-MB-231; 0.447 µM in the assay on MDA-MB-157; 0.323 µM in the assay with ZR-75-1; 2.62 µM in the assay with 786-O. Further, the IC50 amounted to 0.409 µM with ACHN; 0.286 µM in the assay on WM-115; 0.233 µM with RPMI8226; 1.12 µM in the assay on U87MG; 0.312 µM in the assay with Ramos; 0.217 µM in the assay on Daudi. Also, the figures for the IC50 in the assay with HL60 and in the assay on EOL-1 were 0.261 µM and 0.138 µM, respectively.
